BindingDB's records for doi:10.1016/j.bmcl.2009.07.043 (Wyeth Research, 2009)

Test: Inhibition of human Src expressed in rat fibroblasts assessed as anchorage independent growth after 3 days

With COc1cc(Nc2c(C#N)cnc3cc(-c4ncccc4CN4CCOCC4)ccc23)c(Cl)cc1Cl [4-(2,4-dichloro-5-methoxyphenylamino)-7-(3-(morpholinomethyl)pyridin-2-yl)quinoline-3-carbonitrile] the IC50 was > 10 µM.
